Entries after “also recorded” stand apart in the source; their conditions may differ.
Tested on: DBA/1 mice
Assay: Pristane: DBA/1 strain lupus disease model
Format: in vivo, mouse
Protocol: Figure Legend: Female DBA/1 mice at 10-11 weeks of age were given an intraperitoneal injection of 0.5 ml pristane or PBS. Once-a-day oral dosing with Vehicle (Veh; 0.5% methyl-cellulose) or 300 mg/kg ER-892887 was begun 3.5 months after pristane injection for a total of 3 months treatment. (A) Mice were euthanized after 3 months of compound treatment, and anti-dsDNA and anti-RiboP titers were measured in blood plasma samples by ELISA (statistical significance determined by Mann-Whitney test). (B) Arthritis development was assessed monthly by visual scoring. (C) The expression of IFN-regulated genes in whole blood was measured by a qPCR panel after 3 months of treatment, and an IFN gene signature score was calculated (see Pharmacology Materials and Methods section for details regarding IFN score calculation).
Figure Legend: Female DBA/1 mice at 11-12 weeks of age were given an intraperitoneal injection of 0.5 ml of pristane or PBS. Once-a-day oral dosing with Vehicle (Veh; 0.5% methyl-cellulose) or 33, 100, or 300 mg/kg ER-892887 was begun 2 months after pristane injection for a total of 3 months treatment. Mice were euthanized after 3 months of compound treatment, and anti-dsDNA (A), -RiboP (B), -Sm/nRNP (C), and -Histone (D) titers were measured in blood plasma samples by ELISA (statistical significance determined by Mann-Whitney test). (E) Summary of mortality observed in the study during 3 months of compound treatment. (F) The expression of IFN-regulated genes in whole blood was measured by a qPCR panel at the last time point for Vehicle and 300 mg/kg ER-892887 treated mice, and an IFN gene signature score was calculated (see Pharmacology Materials and Methods section for details regarding IFN score calculation).
Figure Legend: Female DBA/1 mice at 11 weeks of age were given an intraperitoneal injection of 0.5 ml pristane or PBS. Once-a-day oral dosing with Vehicle (Veh; 0.5% methyl-cellulose) or 300 mg/kg ER-892887, 100 mg/kg hydroxychloroquine, 1 mg/kg prednisolone or 100 mg/kg mycophenolate was begun 2 months after pristane injection and continued for 3 months of treatment. (A) At the end of the 3 month treatment arthritis development was assessed by visual scoring of swelling and inflammation. (B) Mice were euthanized after 3 months of compound treatment, and anti-dsDNA, anti-histone, anti-Sm/RNP and anti-RiboP titers were measured in blood plasma samples by ELISA (statistical significance determined by Mann-Whitney test). ELISA values falling above or below the range of the standard curve were assigned a value equal to the highest or lowest valid measurement, as appropriate. (C) The expression of IFN-regulated genes in whole blood was measured by a qPCR panel after 3 months of treatment. […] (D) IFN scores of genes regulated by pristane in this experiment are shown.
FIG. 14 presents the effect of compound ER-892887 on arthritis and autoantibodies in the Pristane: DBA/1 strain lupus disease model. Figure Legend: Female DBA/1 mice at 10 weeks of age were given an intraperitoneal injection of 0.5 ml pristane or PBS. At 22 weeks of age, mice were randomized into groups with equivalent median anti-dsDNA titers and treated with Vehicle (Veh; 0.5% methyl-cellulose) alone or 300 mg/kg ER-892887 once-a-day orally (QD PO). Arthritis symptoms (swelling and inflammation) were recorded monthly by blinded observers. All mice were sacrificed at 34 weeks of age (12 weeks of treatment) and blood plasma autoantibody titers were determined by ELISA. Prior to termination paws were x-rayed and scored for bone damage and erosions by two blinded analysts. (A) Top—Arthritis scores were calculated monthly in vehicle and compound dosed-groups. (A) Bottom—X-ray scores were calculated after three months of treatment. (B) Autoantibody titers were measured in terminal blood plasma samples by ELISA (statistical significance determined by Mann-Whitney test). […]

SMILES: COc1ccc([C@@H]2C[C@H](C(F)(F)F)n3nc(-c4ccc(C(=O)N5CCNCC5)cc4)cc3N2)cc1OC [ER-892887, (4-((5S,7R)-5-(3,4-dimethoxyphenyl)-7-(trifluoromethyl)-4,5,6,7-tetrahydropyrazolo[1,5-a]pyrimidin-2-yl)phenyl)(piperazin-1-yl)methanone]
- IFN gene signature score: reduction
- RNA-related reactivity such as anti-RiboP titers: particularly robust impact
- arthritis severity: reduced arthritis severity
- interferon gene signature score, comparison with three commonly used lupus treatments: suppressed the interferon gene signature score significantly
- various auto-antibodies: suppressed
- suppression of autoantibodies compared with hydroxychloroquine or prednisolone (at the doses tested): better
- whole blood interferon-driven gene expression (qPCR panel): reduction; also recorded: suppressed

From patent US9126999B2, “Tetrahydropyrazolopyrimidine compounds” (EISAI R&D MANAGEMENT CO., LTD., priority 2012, dated 2015)
